Data on one molecule can be found in US12054485B2, “Substituted imidazoquinolines” (BIONTECH SE, priority 2017, dated 2024).

One experiment has as its system cynomolgus monkeys. Put plainly: In vivo IFN-α secretion in cynomolgus monkeys (plasma IFN-α ELISA). Conditions: cynomolgus monkey, single i.v. 30 min infusion, 0.1 mg/kg. The method, then:
In the following studies, compounds according to the invention were examined in an in vivo cynomolgus monkey model. It is evaluated whether and at which applied dose the compounds cause secretion of IFN-α.
In particular, a defined single dose of test compound was applied intravenously to cynomolgus monkeys by a thirty minute infusion. At several time points after initiation of the intravenous compound application, blood samples (0.5 mL for approximately 0.25 mL plasma) were collected from the vena cephalica antebrachii or vena saphena into K3EDTA tubes from the animals. Blood samples were stored on crushed ice prior to centrifugation. Plasma was obtained by centrifugation at 4° C. and approximately 1800 g for 10 minutes and was aliquoted into labeled micro tubes and stored frozen at −70° C. or below. Plasma samples were thawed, diluted and used for determination of IFN-α levels using an IFN-α Elisa Kit (e.g. VeriKine™ Cynomolgus/Rhesus IFN-α ELISA Kit) according to the manufacturer's instructions.
(ELISA stands for enzyme-linked immunosorbent assay.)

For the next experiment, the target named is T1, human TLR8 (Homo sapiens, UniProt Q9NR97).
T1 construct: host or cells: HEK-Blue-hTLR8
T1 sequence (Q9NR97 27-1041): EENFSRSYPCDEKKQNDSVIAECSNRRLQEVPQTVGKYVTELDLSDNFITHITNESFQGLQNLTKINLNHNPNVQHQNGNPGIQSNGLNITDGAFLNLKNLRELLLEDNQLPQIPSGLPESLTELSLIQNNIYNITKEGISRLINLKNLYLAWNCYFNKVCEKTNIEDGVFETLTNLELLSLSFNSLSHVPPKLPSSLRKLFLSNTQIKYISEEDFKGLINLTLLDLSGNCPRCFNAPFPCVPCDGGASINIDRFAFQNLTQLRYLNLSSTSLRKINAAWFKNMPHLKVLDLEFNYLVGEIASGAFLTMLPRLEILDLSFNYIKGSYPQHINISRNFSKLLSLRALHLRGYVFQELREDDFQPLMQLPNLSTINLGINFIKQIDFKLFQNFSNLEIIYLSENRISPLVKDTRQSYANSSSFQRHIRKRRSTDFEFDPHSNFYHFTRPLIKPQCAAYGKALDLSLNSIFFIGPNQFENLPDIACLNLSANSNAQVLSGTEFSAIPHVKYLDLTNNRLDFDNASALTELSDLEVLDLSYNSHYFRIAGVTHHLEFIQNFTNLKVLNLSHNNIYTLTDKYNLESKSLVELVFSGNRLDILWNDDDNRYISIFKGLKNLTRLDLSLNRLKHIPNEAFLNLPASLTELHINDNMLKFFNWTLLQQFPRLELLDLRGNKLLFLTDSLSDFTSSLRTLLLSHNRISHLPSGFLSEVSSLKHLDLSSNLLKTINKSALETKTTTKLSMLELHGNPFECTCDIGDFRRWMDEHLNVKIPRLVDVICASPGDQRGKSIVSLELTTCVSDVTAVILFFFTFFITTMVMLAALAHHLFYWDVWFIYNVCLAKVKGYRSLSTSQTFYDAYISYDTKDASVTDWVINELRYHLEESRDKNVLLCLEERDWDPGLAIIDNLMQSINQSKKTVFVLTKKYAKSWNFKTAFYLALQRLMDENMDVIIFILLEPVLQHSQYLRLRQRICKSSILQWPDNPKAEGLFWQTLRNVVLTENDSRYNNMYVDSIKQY
Put plainly: TLR8 reporter gene assay (HEK-Blue-hTLR8, NFkB/AP-1 inducible SEAP). The experiment is classed as cell-based. The method, then:
2) TLR Stimulation Assay:
Compounds are tested for stimulation of human TLR7 and TLR8, respectively, via reporter gene expression analyzed in a cell line stably transfected with human TLR7 and TLR8, respectively, and coexpressing an NFkB/AP-1 inducible SEAP reporter gene. Stimulation with a TLR ligand leads to NFkB/AP-1 activation and upregulation and secretion of SEAP, which can be measured in the supernatant with QuantiBlue™ detection system (InvivoGen).
Cell lines used were either HEK-Blue-hTLR7 (InvivoGen #hkb-htlr7) or HEK-Blue-hTLR8 (InvivoGen #hkb-htlr8). Cells were cultured following manufacturer's instructions. […]
In general terms: A reporter such as luciferase makes a cellular process visible.

With `CCc1nc2c(N)nc3ccccc3c2n1CCCCN(C(C)=O)C1CCOCC1` [Example 1, N-(4-(4-Amino-2-ethyl-1H-imidazo[4,5-c]quinolin-1-yl)butyl)-N-(tetrahydro-2H-pyran-4-yl)acetamide], the “IFN-α secretion (plasma)” value with cynomolgus monkeys is “up to 15,000 pg/ml”. Further, the “activity towards TLR8 in the TLR8 reporter gene assay” value at human TLR8 is listed as “no activity”.
